Where two headings read alike, the source gives them in different places.
Tests used:
BCR-ABL Ba/F3 cells [1] = test: Apoptosis; settings: 4 days
RAS [2] = test: RAS activity in K562R cells; type: cell-based, human
CRAF^T421N = CRAF^T421N (Homo sapiens, UniProt P04049, T421N); test: RAF kinase assay, myc-tagged CRAF^T421N captured from COS cells; settings: gatekeeper mutant; imatinib 10μM, nilotinib 1μM, dasatinib 5μM
BCR-ABL Ba/F3 cells [3] = test: Cell proliferation, BCR-ABL Ba/F3 cells; settings: PD184352 2μM, imatinib 3μM, nilotinib 1μM, 4 days
CRAF [4] = target: T1, CRAF (Homo sapiens, UniProt P04049); settings: D04 cells; imatinib 10μM, nilotinib 1μM, dasatinib 5μM, 3 hr
CRAF [5] = target: T2, CRAF (Mus musculus, UniProt Q99N57); test: Endogenous CRAF kinase activity in BCR-ABL Ba/F3 cells
T2 sequence (Q99N57 whole entry): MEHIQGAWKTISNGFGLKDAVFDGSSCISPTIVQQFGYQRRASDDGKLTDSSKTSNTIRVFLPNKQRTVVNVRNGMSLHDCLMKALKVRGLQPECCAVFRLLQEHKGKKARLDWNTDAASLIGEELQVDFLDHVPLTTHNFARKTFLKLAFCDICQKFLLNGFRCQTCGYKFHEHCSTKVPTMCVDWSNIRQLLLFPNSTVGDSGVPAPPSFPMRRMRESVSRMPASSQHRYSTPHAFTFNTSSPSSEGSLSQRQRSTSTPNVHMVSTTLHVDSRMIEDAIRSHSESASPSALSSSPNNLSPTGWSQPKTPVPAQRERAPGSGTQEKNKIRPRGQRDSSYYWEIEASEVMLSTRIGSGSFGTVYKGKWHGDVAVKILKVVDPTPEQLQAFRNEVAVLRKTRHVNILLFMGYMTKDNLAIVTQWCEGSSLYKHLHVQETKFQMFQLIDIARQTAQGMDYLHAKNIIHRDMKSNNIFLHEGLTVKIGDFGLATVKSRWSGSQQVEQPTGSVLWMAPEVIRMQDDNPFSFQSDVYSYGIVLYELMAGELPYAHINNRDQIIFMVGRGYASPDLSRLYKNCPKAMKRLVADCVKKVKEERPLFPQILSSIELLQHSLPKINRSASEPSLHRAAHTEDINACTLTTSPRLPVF

K562 cells [6] = test: Western blots of CRAF immunoprecipitates and lysates, K562 cells; type: cell-based, human
[7] = test system: BCR-ABL^T315I Ba/F3 allografts; test: Tumor allograft growth, BCR-ABL^T315I Ba/F3 cells in nude mice; type: in vivo; settings: BCR-ABL^T315I tumors; 25 mg/kg, oral gavage daily
[8] = test system: BCR-ABL^T315I Ba/F3 cells; test: Western blots of CRAF immunoprecipitates and lysates, BCR-ABL^T315I Ba/F3 cells
[9] = patient plasma; ref Weisberg et al., 2007; Demetri et al., 2002; cited from earlier work
[10] = test system: K562 cells expressing HRAS^G12V; type: cell-based, human; settings: for MEK and ERK phosphorylation: pathway already saturated
BV173 cells [11] = test: Western blots of CRAF immunoprecipitates and lysates, BV173 cells; type: cell-based, human
D04 cells (NRAS^Q61L) = settings: western blot
CRAF [12] = target: T2, CRAF; settings: BCR-ABL^T315I Ba/F3 cells
BV173 cells [13] = test: Cell proliferation and apoptosis; settings: PD184352 0.2μM, nilotinib 0.1μM, 6 days
[14] = test system: BCR-ABL^G250E/T315I, BCR-ABL^E255K/T315I and BCR-ABL^E255V/T315I Ba/F3 cells; test: Cell proliferation, Ba/F3 cells expressing compound BCR-ABL mutants; settings: Ba/F3 cells with compound BCR-ABL mutants; PD184352 2μM, nilotinib 1μM, 4 days
[15] = test system: mononuclear cells harbouring native BCR-ABL from newly diagnosed CML patients; settings: primary BCR-ABL cells; nilotinib 1μM, PD184352 0.3μM, 96 hr
BCR-ABL Ba/F3 cells [16] = test: Western blots of CRAF immunoprecipitates and lysates, BCR-ABL Ba/F3 cells
[17] = test system: BCR-ABL^T315I expressing mononuclear cells from imatinib-resistant CML patients; test: Cell proliferation; settings: primary BCR-ABL^T315I cells; nilotinib 1μM, PD184352 0.3μM, 96 hr
[18] = test system: SW620 (KRAS^G12V), Panc1 (KRAS^G12D) and H460 (KRAS^Q61H) cells; test: Western blot for MEK and ERK activation in KRAS mutant cells; type: cell-based, human; settings: imatinib 10μM, nilotinib 1μM, dasatinib 5μM
BCR-ABL Ba/F3 allografts = test: Tumor allograft growth, BCR-ABL Ba/F3 cells in nude mice; type: in vivo; settings: BCR-ABL tumors; 25 mg/kg, oral gavage daily
K562R cells [19] = test: Apoptosis; type: cell-based, human; settings: PD184352 1μM, 4 days
[20] = test system: CD34+ hematopoietic cells from healthy individuals; test: Cell proliferation; settings: nilotinib 1μM, PD184352 0.3μM, 96 hr
[21] = test system: BCR-ABL^T315I Ba/F3 cells; test: Cell proliferation, BCR-ABL^T315I Ba/F3 cells
[22] = test system: BV173R cells (BCR-ABL^T315I)
RAS [23] = test: RAS-GTP capture assay, BCR-ABL Ba/F3 cells; type: cell-based, murine; settings: nilotinib 1μM, 60 min
K562R cells [24] = test: Western blots, K562R cells; type: cell-based, human
CRAF [25] = target: T1, CRAF; test: RAF kinase assay, myc-tagged CRAF captured from COS cells; settings: imatinib 10μM, nilotinib 1μM, dasatinib 5μM
RAS [26] = test: RAS activity in K562 cells; type: cell-based, human
K562 cells [27] = test: Apoptosis; type: cell-based, human; settings: PD184352 1μM, 4 days
[28] = test system: Ba/F3 cells expressing BCR-ABL^G250E/T315I, BCR-ABL^E255K/T315I and BCR-ABL^E255V/T315I; test: Western blots, Ba/F3 cells expressing compound BCR-ABL mutants; type: cell-based, murine; settings: Ba/F3 cells with compound BCR-ABL mutants
CML = settings: first-line treatment of CML; ref Quintás-Cardama et al., 2009; cited from earlier work
[29] = imatinib 10μM, nilotinib 1μM, dasatinib 5μM

Cc1cn(-c2cc(NC(=O)c3ccc(C)c(Nc4nccc(-c5cccnc5)n4)c3)cc(C(F)(F)F)c2)cn1 [nilotinib]
apoptosis (BCR-ABL Ba/F3 cells [1]): induced apoptosis
RAS activity (RAS [2]): did not inhibit RAS
CRAF^T421N kinase activity in vitro (CRAF^T421N): resistant
cell growth (BCR-ABL Ba/F3 cells [3]): sensitive
endogenous CRAF kinase activity (CRAF [4]): activated
CRAF activity (CRAF [5]): blocked CRAF activity
BCR-ABL and CRKL phosphorylation (K562 cells [6]): inhibited BCR-ABL and CRKL phosphorylation
CRAF, MEK and ERK phosphorylation (K562 cells [6]): inhibited CRAF, MEK and ERK phosphorylation
BRAF binding to CRAF (K562 cells [6]; [29]): did not induce BRAF binding to CRAF
tumor growth [7]: insensitive
BRAF binding to CRAF [8]: enhanced BRAF binding to CRAF
CRAF (S338) phosphorylation, MEK and ERK activity/phosphorylation [8]: induced CRAF phosphorylation on S338 (Fig 3C) and activated CRAF (Fig 3D), MEK and ERK
BCR-ABL and CRKL phosphorylation ([8]; BCR-ABL^T315I Ba/F3 cells): did not inhibit BCR-ABL or CRKL phosphorylation
peak plasma/serum concentration [9]: ~4 µM
BRAF binding to CRAF [10, 29]: induced BRAF binding to CRAF
MEK and ERK phosphorylation [10]: did not increase MEK and ERK phosphorylation
BCR-ABL and CRKL phosphorylation (BV173 cells [11]): inhibited BCR-ABL and CRKL phosphorylation
BRAF binding to CRAF (BV173 cells [11]): did not induce BRAF binding to CRAF
MEK and ERK activity (BV173 cells [11]): inhibited MEK and ERK
lowest concentration stimulating robust MEK and ERK phosphorylation (D04 cells (NRAS^Q61L)): 100 nM
CRAF activity (CRAF [12]): activated CRAF
cell proliferation and apoptosis (BV173 cells [13]): inhibited cell proliferation and induced apoptosis
cell proliferation [14]: did not affect proliferation
cell proliferation [15]: inhibited the proliferation
BRAF binding to CRAF (BCR-ABL Ba/F3 cells [16]): did not affect BRAF binding to CRAF
BCR-ABL (Y245) and CRKL (Y207) phosphorylation (BCR-ABL Ba/F3 cells [16]; BCR-ABL Ba/F3 cells): blocked
cell growth [17]: did not affect the growth
MEK and ERK activation [18]: activated MEK and ERK
tumor growth (BCR-ABL Ba/F3 allografts): strongly suppressed
growth / cell death (K562R cells [19]): did not affect the growth
cell proliferation [20]: resistant
cell growth [21]: resistant
BRAF binding to CRAF [22]: induced BRAF binding to CRAF
MEK and ERK activity [22]: activated MEK and ERK
RAS activity (RAS-GTP) (RAS [23]): blocked RAS activity
BCR-ABL and CRKL phosphorylation (K562R cells [24]): blocked BCR-ABL and CRKL phosphorylation
CRAF, MEK and ERK phosphorylation (K562R cells [24]): did not block CRAF, MEK or ERK phosphorylation
CRAF kinase activity in vitro (CRAF [25]): inhibited
RAS activity (RAS [26]): suppressed RAS activity
apoptosis / cell death (K562 cells [27]): induced apoptosis
BCR-ABL and CRKL phosphorylation [28]: did not inhibit BCR-ABL or CRKL phosphorylation
BRAF binding to CRAF, MEK and ERK activation [28]: induced BRAF binding to CRAF as well as MEK and ERK activation

Cc1ccc(NC(=O)c2ccc(CN3CCN(C)CC3)cc2)cc1Nc1nccc(-c2cccnc2)n1 [imatinib]
MEK and ERK phosphorylation [10]: did not increase MEK and ERK phosphorylation
patients who do not achieve complete responses (CML): 20-30%
BCR-ABL and CRKL phosphorylation (BV173 cells [11]): inhibited BCR-ABL and CRKL phosphorylation
MEK and ERK activity (BV173 cells [11]): inhibited MEK and ERK
MEK and ERK activation [18]: activated MEK and ERK
